The series has as its target BSA (Bos taurus, UniProt P02769). The series can be described thus: Circular dichroism (CD) spectra of BSA with surfactant. The class given is physicochemical, bovine. The settings on record: 0.1 g·L^−1 BSA; 1, 2, 2.5, 4, or 6 mM SDS. An excerpt: Resolution of CD is ±0.1 degree.
Surfactant-protein complexation is often associated with molecular rearrangement of the protein (i.e., change in protein conformation). […] Protein conformation changes can be probed using circular dichroism (CD) experiments, as illustrated in FIG. 5.
(CD spectra are sensitive to the conformation of chiral molecules.)

BSA, sequence (P02769 25-607): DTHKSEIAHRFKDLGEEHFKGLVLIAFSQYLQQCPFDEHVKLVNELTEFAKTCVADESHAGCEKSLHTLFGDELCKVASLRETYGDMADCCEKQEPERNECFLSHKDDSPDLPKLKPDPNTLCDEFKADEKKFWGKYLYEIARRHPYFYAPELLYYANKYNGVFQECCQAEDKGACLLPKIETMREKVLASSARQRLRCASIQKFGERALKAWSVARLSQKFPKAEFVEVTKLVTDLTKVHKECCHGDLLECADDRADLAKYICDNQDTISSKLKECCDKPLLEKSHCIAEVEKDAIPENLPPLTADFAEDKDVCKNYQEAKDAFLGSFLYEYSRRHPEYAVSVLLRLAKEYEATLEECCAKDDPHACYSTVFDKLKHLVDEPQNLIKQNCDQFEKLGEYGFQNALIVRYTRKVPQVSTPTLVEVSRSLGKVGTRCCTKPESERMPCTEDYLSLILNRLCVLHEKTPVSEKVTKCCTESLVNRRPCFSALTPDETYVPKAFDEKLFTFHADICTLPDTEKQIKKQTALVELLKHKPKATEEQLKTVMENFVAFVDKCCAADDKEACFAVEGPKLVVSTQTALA

In the case of `CCCCCCCCCCCCOS(=O)(=O)[O-].[Na+]` [SDS, sodium dodecyl sulfate], the “CD spectrum of BSA with surfactant compared with BSA alone” value was “distinctly different CD spectrum”.

Values taken from US11292002B2, “Surfactant additives for digital microfluidic devices for high protein content droplets transport” (THE GOVERNING COUNCIL OF THE UNIVERSITY OF TORONTO, priority 2016, dated 2022).
